Series [1] can be described thus: Pharmacokinetics of Aftin-5 in mice after single PO or IP dose. The settings on record: for Tmax / Cmax / Kp: mouse; for Kp: brain/plasma, read-out: brain/plasma partition coefficient (Kpbrain/plasma). Format: in vivo. The text has this: In addition, pharmacokinetic experiments of Aftin-5 in mice confirmed the ability of the compound to reach the brain. The PK parameters are plotted in Table 3 below.
The brain/plasma partition coefficient (Kpbrain/plasma) was about 0.014 and 0.033 for oral and IP administration, respectively.

Series [2] has as its system extracellular Aβ (Aβ1-38, Aβ1-40, Aβ1-42). Put plainly: Extracellular Aβ production in organotypic hippocampal slice cultures (MSD sandwich immunoassay). The format is cell-based, mice. The procedure: Organotypic hippocampal slice cultures (OHSC) were prepared from newborn (P0-P3) C57B16 or for transgenic 3×Tg-AD mice and were cultured according the interface method (Gogolla et al., 2006). OHSC were kept for 7 days in vitro (div) at 37° C. in a humidified atmosphere (5% CO2) before treatment. Medium was changed every other day.
For acute exposure, neurons were exposed to various concentration of Aftin-5 for 18 hours for acute exposure. […]
All Aβ peptides assays in the samples were performed using V-PLEX Aβ Peptide Panel 1 (4G8) Kit (MSD Technologies_K15199E-1). All plates were read on the SECTOR Imager 2 400 (MSD Technologies). The Aβ peptides assay is based on the principle of the sandwich immunoassay. All assays have followed strictly the protocol kit and all reagents were from Meso Scale Discovery. Briefly, a 96-well plate having 4 spots pre-coated with the corresponding antibodies is provided by MSD Technology (4-spot MULTI-SPOT plates). Before adding the samples, a first saturation step is required. Once the plate is satured and washed, 25 μL of sample (or calibrators) per well are loaded, then 25 μL of the Detection Antibody solution (MSD SULFO-TAG). The plate is incubated for 2 hours. At the end of the incubation, the plate is washed and then a chemical solution (Read buffer 2×) is added allowing electrochemiluminescence. After a short incubation (5 min) at room temperature, the plate is read on the SECTOR Imager 2400. The instrument measures the intensity of the light electrochemiluminescence.

For another series, the system named is BDNF. Nature of the series: BDNF mRNA in OHSC (RT-qPCR). Format: cell-based. Conditions: OHSCs from WT mice, 50 μM, 10 days. The procedure: FIG. 15. Plots illustrating the effect of Aftin-5 on relative mRNA expression levels of Long Term Potentialisation (LTP) biomarkers, i.e CREB (A), PSD95 (B) and BDNF (C) in C57B16J OHSC mice treated chronically with Aftin-5. OHSC culture media of OHSC were replaced by incubation medium containing Aftin-5 (50 μM; A50) or vehicle (0.1% DMSO; Veh). 10 days later, total mRNA in lysate was isolated and purified, cDNAs were then synthesized from […] of total mRNA. cDNAs were amplified by quantitative RT-PCR and the relative expression of specific genes was normalized to the housekeeping gene HPRT1 (2^—ΔCt). […] Data expressed as means+/−SEM from q=3 independent experiments with n=4-6 inserts/condition and 10 slices/insert. […]
The impact of Aftin-5 on gene expression of different biomarkers was determined by measuring mRNA levels of selected BDNF, CREB, PS95, INS Receptor/IGF-1 receptor, IL-1β, IL-6 in OHSC treated chronically with Aftin-5 or in a total brain from mice exposed to Aftin-5 at either 8 or 30 mg/Kg. […] RNA concentration was measured spectrophotometrically at 260 nm in a NanoDrop 2000c (Thermo Scientific, Villebon-sur-Yvette, France) (sample A260 nm/A280 nm ratios over 1.8 indicated reduced genomic DNA contamination). cDNAs were synthesized from 0.5 μg of total RNA with RT^2 First Strand kit (Qiagen, Courtaboeuf, France) according to the manufacturer's protocol and stored at −80° C. […]

In the next series the test system is GSK-3β. Put plainly: GSK-3β activity in organotypic slice cultures from transgenic mice overexpressing phosphorylated Tau. Format: cell-based. The text has this:
Unpredictably, Aftin-5 is shown herein to efficiently promote an attenuation of the phosphorylation of Tau protein (see example 5).

Where [3] appears, read: plasma, IP single dose 10 mg/kg.
[4] abbreviates: chronic treatment of OHSC (10 days).

Read-outs that look alike come from different tables or passages of the source.

Consider `CC[C@H](CO)Nc1nc(N(C)c2ccccc2)c2ncn(C(C)C)c2n1` [Aftin-5], for which the “AUC0-∞” value was 441.51 nMh in series [1] (brain, IP single dose 10 mg/kg); 115.25 nMh in series [1] (brain, PO single dose 5 mg/kg); 13577.63 nMh in series [1] (setting [3]). In addition, the “t^1/2” value in series [1] (brain, IP single dose 10 mg/kg) is 0.6 h; in series [1] (brain, PO single dose 5 mg/kg) it was 1.8 h; in series [1] (setting [3]), around 1.2 h. Further, the Tmax came to 4.98 min in series [1] (brain, IP single dose 10 mg/kg); 15 min in series [1] (brain, PO single dose 5 mg/kg); 4.98 min in series [1] (setting [3]); 15 min in series [1] (plasma, PO single dose 5 mg/kg). The Cmax in series [1] (brain, ip, 10 mg/kg, IP single dose 10 mg/kg) was around 807 nM; in series [1] (brain, po, 5 mg/kg, PO single dose 5 mg/kg), around 44.9 nM; in series [1] (plasma, ip, 10 mg/kg, IP single dose 10 mg/kg) it was 22600 nM; in series [1] (plasma, po, 5 mg/kg, PO single dose 5 mg/kg) it was 3890 nM. For the same compound, the Kp in series [1] (IP administration, single dose 10 mg/kg) was around 0.033; in series [1] (oral administration, single dose 5 mg/kg), around 0.014. In addition, in series [2] (OHSC, Aftin-5 50 μM with BMS (10 μM), 10 days), the “modulation of Aβ1-42/Aβ1-40 ratio induced by Aftin-5 in presence of γ-secretase inhibitor BMS” value is given as “no changes”. In series [2] (setting [4]), the Aβ1-38 result is “decrease”. Also, the Aβ1-40 entry in series [2] (setting [4]) is on record as “remained unchanged”. Further, the “concentration ratio Aβ1-42/Aβ1-40” value in series [2] (setting [4]) is “slight but significant increase”. For the same compound, the “production of Aβ1-42” value in series [2] (chronic treatment of OHSC (10 days), P<0.0001) was “increase”. Further, the “BDNF mRNA” value with BDNF is on record as “transcriptional upregulation”. Further, the “activity of GSK-3β” value in the series on GSK-3β is listed as “reduces”.

As usually defined, the Tmax is the time at which the peak concentration occurs. As a reminder, the Cmax is the maximum level reached in the sampled fluid or tissue.

The values are drawn from patent US11472807B2, “Purine derivatives for use as medicament and for use in treating neurodegenerative or neuro-inflammatory disorders” (COMMISSARIAT À L'ENERGIE ATOMIQUE ET AUX ENERGIES …, priority 2017, dated 2022).
